Assay type in all cases: cell-based
In one experiment the test system is A498. The experiment in a line: NCI human cancer cell line test, Renal A498. An excerpt:
(§1) Only two hundred years ago, many diseases ravaged humankind. Many of these diseases have been controlled or eradicated. In the development of the means to treat or control these diseases, work with the appropriate common experimental animals was of critical importance. With the various types of cancers, and with the HIV virus, such work is presently ongoing. The research for the treatment of various types of cancer is coordinated by the National Cancer Institute (NCI).NCI, as a government entity, has been charged with assisting anti-cancer research. To establish whether a substance has anti cancer activity, NCI has established a protocol. This protocol, which involves testing a substance against a cell line panel containing 60 human tumor cell lines, has been verified, and is accepted in scientific circles. This protocol, and the established statistical means of evaluating the results obtained therefrom have been amply described in the literature. See e.g. Principles & Practice of Oncology PPO Updates, Volume 3, Number 10, October 1989, by Michael R. Boyd, M.D., Ph.D., for a description of the protocol. The statistical analysis is explained in "Display and Analysis of Patterns of Differential Activity of Drugs Against Human Tumor Cell Lines: Development of Mean Graph and COMPARE Algorithm" Journal of the National Cancer Institute Reports Vol. 81, No. 14, Pg. 1088, Jul. 14, 1989, by K. D. Paull et al. Both articles are incorporated herein by this reference as if fully set forth.
(§2) The structural modifications of dolastatin 10 whose design and synthesis are described herein were evaluated for antineoplastic activity. This evaluation was conducted using the standard protocols established by National Cancer Institute (NCI) as described above. These protocols do evaluate whether the substances in question have antineoplastic activity against certain human cancer cell lines derived from human cancer patients. Substantial activity was found in those compounds tested. The antineoplastic activity of the compounds is reported below in Table 1. The results of the 60 cell line NCI in vitro testing of compound 6b conducted Jun. 22, 1992, is reported below in Table 2.

The subject of a further experiment is KM20L2. The experiment in a line: NCI human cancer cell line test, Colon KM20L2.
From the text: as §1, §2

The test system of a further experiment is OVCAR-3. As to the kind of experiment: NCI human cancer cell line test, Ovarian OVCAR-3.
From the text: as §1, §2

In the next experiment the test system is SF-295. As to the kind of experiment: NCI human cancer cell line test, CNS SF-295.
From the text: as §1, §2

The test system of another experiment is SK-MEL-3. As to the kind of experiment: NCI human cancer cell line test, Melanoma SK-MEL-3.
From the text: as §1, §2

In a further experiment the test system is NCI-460. As to the kind of experiment: NCI human cancer cell line test, Lung-NSC NCI-460.
From the text: as §1, §2

In another experiment the test system is P-388. The experiment in a line: Mouse leukemia cell P-388 growth inhibition. The procedure: as §2
The next experiment deals with human cancer cell line. The experiment in a line: Human cancer cell line activity compared to dolastatin 10.

The term TGI denotes the concentration at which net growth stops. Low readings indicate greater sensitivity of the cells, high ones lower sensitivity of the cells. Regarding “[2S-[1[1R*(R*),2S*],2R*[1S*,2S*]]]-N,N-dimethyl-L-valyl-N-[2-methoxy-4-[2- [1-methoxy-2-methyl-3-oxo-3-benzylamino-propyl]-1-pyrrolidinyl-1-(methylpropyl)-4-oxobutyl]-N-methyl-L-valineamide [Compound 6a]”, the GI-50 in the experiment on A498, in the experiment on KM20L2, in the experiment on OVCAR-3, in the experiment with SF-295, with SK-MEL-3 and with NCI-460 was under 0.0001 µg/mL throughout. Also, the LC-50 with A498, with KM20L2, in the experiment on OVCAR-3, in the experiment with SF-295, in the experiment with SK-MEL-3 and with NCI-460 was under 0.0001 µg/mL in each case. In addition, the concentration for total growth inhibition (TGI) with A498, in the experiment on KM20L2, with OVCAR-3, in the experiment on SF-295, in the experiment with SK-MEL-3 and with NCI-460 was under 0.1 ng/mL throughout. In the experiment with P-388, the ED-50 amounted to 0.00378 mg/mL.

Regarding “[2S-[1[1R*(R*),2S*],2R*[1S*,2S*]]]-N,N-dimethyl-L-valyl-N-[2-methoxy-4-[2- [1-methoxy-2-methyl-3-oxo-3-[[2-phenyl-ethyl]amino]propyl]-1-pyrrolidinyl-1-(methylpropyl)-4-oxobutyl]-N-methyl-L-valineamide [Compound 6b]”, the GI-50 in the experiment with A498 was 0.000013 µg/mL; with KM20L2, 0.000005 µg/mL; in the experiment on OVCAR-3, 0.000004 µg/mL; in the experiment with SF-295, 0.000014 µg/mL; in the experiment on SK-MEL-3, 0.000012 µg/mL; in the experiment on NCI-460, 0.000005 µg/mL. Also, the LC-50 with A498, with KM20L2, in the experiment on OVCAR-3, in the experiment with SF-295, with SK-MEL-3 and with NCI-460 was under 0.0001 µg/mL in each case. Besides, the TGI in the experiment with A498 is under 0.1 ng/mL; with KM20L2 it was under 0.1 ng/mL; with OVCAR-3, 0.027 ng/mL; in the experiment with SF-295, 0.042 ng/mL; in the experiment with SK-MEL-3 it was under 0.1 ng/mL; in the experiment with NCI-460, under 0.1 ng/mL. This substance displayed an ED-50 in the experiment with P-388 of 0.0005 mg/mL.

Regarding R-Doe-isodolastatin 10, the “human cancer cell line activity as compared to dolastatin 10” value with human cancer cell line was “did not show any significant difference”.

Take “[2S-[1[1R*(R*),2S*],2R*[1S*,2S*]]]-N,N-dimethyl-L-valyl-N-[2-methoxy-4-[2- [1-methoxy-2-methyl-3-oxo-3-[[3-phenyl-propyl]amino]propyl]-1-pyrrolidinyl- 1-(methylpropyl)-4-oxobutyl]-N-methyl-L-valineamide [Compound 6c]”: the GI-50 worked out at 0.00039 µg/mL with A498; 0.00033 µg/mL in the experiment on KM20L2; 0.00018 µg/mL in the experiment on OVCAR-3; 0.00028 µg/mL with SF-295; 0.00031 µg/mL with SK-MEL-3; 0.00031 µg/mL in the experiment on NCI-460. In addition, the LC-50 in the experiment on A498, in the experiment on KM20L2, in the experiment with OVCAR-3, in the experiment with SF-295, with SK-MEL-3 and in the experiment with NCI-460 was under 0.01 µg/mL throughout. For the same substance, the TGI in the experiment on A498 is under 10 ng/mL; in the experiment on KM20L2, under 10 ng/mL; in the experiment on OVCAR-3, 0.54 ng/mL; with SF-295, 0.79 ng/mL; with SK-MEL-3 it was under 10 ng/mL; with NCI-460 it was under 10 ng/mL. The substance further showed an ED-50 in the experiment on P-388 of 0.00044 mg/mL.

The values are drawn from patent publication US6034065A, “Elucidation and synthesis of antineoplastic tetrapeptide phenethylamides of dolastatin 10” (Arizona Board of Regents, priority 1992, dated 2000).
